Laboratory results: US20240247080A1, “GLP1/GIP/NPY2 RECEPTOR TRIPLE AGONISTS” (Boehringer Ingelheim International GmbH, priority 2022, published 2024)
pEC50: −log10 of the molar value. Where two headings read alike, the source gives them in different places. Starred links: 1 amine or outer side, 2 acyl side, 3 side chain; linkers in the order of their positions; H or OH if unused. Non-standard residues stand in square brackets, D forms with d. Groups on a side chain read outwards from the residue. No end group written: not given here. *: point of attachment. C20 diacid = O=C(O)CCCCCCCCCCCCCCCCCCC(=O)*; C18 diacid = O=C(O)CCCCCCCCCCCCCCCCC(=O)*; γGlu = O=C(O)[C@H](CCC(=O)[*:2])N[*:1]; εLys = N[C@@H](CCCCN[*:1])C(=O)[*:2]; AEEA = NCCOCCOCC(=O)O; Aib = CC(C)(N)C(=O)O

How the values were obtained:
Assay type in all cases: cell-based
Conditions in all cases: CreLuc reporter gene assay
[1] = molecular target: T1, hGIPR (Homo sapiens, UniProt P48546); test: hGIPR CreLuc reporter gene assay in 0.5% and 100% plasma
T1 construct: expressed in transfected cells; host or cells: CHO cells carrying a CRE-luciferase reporter gene
T1 sequence (P48546 22-466): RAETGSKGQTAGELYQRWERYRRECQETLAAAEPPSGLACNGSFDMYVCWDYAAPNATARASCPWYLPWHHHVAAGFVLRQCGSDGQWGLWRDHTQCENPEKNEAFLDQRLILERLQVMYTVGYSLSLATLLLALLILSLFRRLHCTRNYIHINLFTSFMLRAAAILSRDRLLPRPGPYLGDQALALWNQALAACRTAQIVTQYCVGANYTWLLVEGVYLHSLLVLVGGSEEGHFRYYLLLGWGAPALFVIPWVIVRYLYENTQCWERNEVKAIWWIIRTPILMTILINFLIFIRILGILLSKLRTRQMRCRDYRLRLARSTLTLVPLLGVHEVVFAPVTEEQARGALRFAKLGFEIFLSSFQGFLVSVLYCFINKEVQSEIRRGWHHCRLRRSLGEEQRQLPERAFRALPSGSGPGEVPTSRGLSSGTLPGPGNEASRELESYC
Outline: (§1)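 Agonist EC50s came from 8-concentration curves over four decades, fitted by non-linear variable-slope regression of CRE-driven luciferase luminescence. Cells were exposed 4 h at 37 °C, in buffer with 0.5% human plasma or in 100% plasma; GIPR was expressed in CHO cells, GLP-1R and NPY2R in HEK cells.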

[2] = molecular target: T2, hNPY2R (Homo sapiens, UniProt P49146); test: hNPY2R CreLuc reporter gene assay in 0.5% and 100% plasma
T2 construct: expressed in transfected cells; host or cells: HEK-293 cells carrying a CRE-luciferase reporter gene
T2 sequence (P49146 1-381): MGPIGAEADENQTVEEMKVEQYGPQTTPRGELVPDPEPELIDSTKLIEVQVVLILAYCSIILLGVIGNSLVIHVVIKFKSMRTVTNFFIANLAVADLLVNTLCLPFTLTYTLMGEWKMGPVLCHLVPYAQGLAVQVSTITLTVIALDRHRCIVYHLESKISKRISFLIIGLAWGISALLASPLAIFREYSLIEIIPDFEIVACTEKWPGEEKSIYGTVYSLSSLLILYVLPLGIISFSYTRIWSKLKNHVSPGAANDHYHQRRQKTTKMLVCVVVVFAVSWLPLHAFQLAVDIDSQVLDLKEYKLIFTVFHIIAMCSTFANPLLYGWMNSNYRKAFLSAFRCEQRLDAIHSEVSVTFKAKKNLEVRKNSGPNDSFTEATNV
Excerpt: Example 1: hGLPR/hGIPR/hNPY2R CreLuc Assay in 0.5% and 100% Plasma
CHO and HEK-293 recombinant cell lines express a luciferase reporter gene under control of the cAMP responsive element (CRE). As a second recombinant protein the GLP-1 and NPY2 receptors were expressed in the reporter gene HEK cells, and the GIP receptor was expressed in the reporter gene CHO cells, respectively. Stimulation of these recombinant cells with an agonist leads to an increase of intracellular cAMP levels. In the presence of cAMP, the transcription factor CRE binding protein (CREB) binds to the CRE and to the CREB binding protein (CBP), which leads to transcription of the luciferase reporter gene. Peptides upon serial-dilution in 100% DMSO were transferred into 384-well assay plates with 5 μl pre-dispensed assay buffer (1×HBSS, 20 mM HEPES, pH7.4 supplemented with 0.5% human plasma) using acoustic dispensing on a Labcyte ECHO. Cryo-preserved transgenic reporter gene cells were thawed in assay buffer. 20 μl (10.000 cells/well) were added to the plate with the peptides and incubated for 4 hours at 37° C. in a humidified incubator. Following incubation, assay plates are equilibrated to room temperature, followed by addition of 25 μl of Bright-GIo™ Luciferase reagent, incubation at room temperature for 10 minutes and analysis of luminescence (Envision Reader). Concentration response evaluation of compounds was performed with 8 concentrations of peptides (covering four decades). EC50 values were calculated by non-linear regression using sigmoid concentration-response with variable slope. The same assays were run in the presence of 100% plasma with no additional buffer constituents.

[3] = molecular target: T3, hGLP1R (Homo sapiens, UniProt P43220); test: hGLP1R CreLuc reporter gene assay in 0.5% and 100% plasma
T3 construct: expressed in transfected cells; host or cells: HEK-293 cells carrying a CRE-luciferase reporter gene
Outline: as §1

[4] = 0.5% human plasma, read-out: hGIPR 0.5% hP
[5] = 100% human plasma, read-out: hGIPR 100% hP
[6] = 0.5% human plasma, read-out: hNPY2R 0.5% hP
[7] = 100% human plasma, read-out: hNPY2R 100% hP
[8] = 0.5% human plasma, read-out: hGLP1R 0.5% hP

T3 sequence (P43220 24-463): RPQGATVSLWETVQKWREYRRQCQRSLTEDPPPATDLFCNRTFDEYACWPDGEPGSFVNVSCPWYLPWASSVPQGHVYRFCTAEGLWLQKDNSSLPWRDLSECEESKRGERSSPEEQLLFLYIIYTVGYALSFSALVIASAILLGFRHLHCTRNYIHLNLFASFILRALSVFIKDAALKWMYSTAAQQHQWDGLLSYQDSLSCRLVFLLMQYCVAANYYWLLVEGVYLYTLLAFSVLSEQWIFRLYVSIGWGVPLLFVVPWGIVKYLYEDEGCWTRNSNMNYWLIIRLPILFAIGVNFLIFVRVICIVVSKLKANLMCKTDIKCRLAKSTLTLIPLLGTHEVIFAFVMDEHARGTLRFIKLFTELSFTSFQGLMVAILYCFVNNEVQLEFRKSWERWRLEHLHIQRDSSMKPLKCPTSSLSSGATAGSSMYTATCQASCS

| Substance | pEC50 [1, 4] | pEC50 [1, 5] | pEC50 [2, 6] | pEC50 [2, 7] | pEC50 [3, 8] | pEC50 ([3]; 100% human plasma, read-out: hGLP1R 100% hP) |
| --- | --- | --- | --- | --- | --- | --- |
| H-Y[Aib]EGTFTSDYSI[Aib]LEKQAQ[Aib]AFVEWLIK([εLys-γGlu-γGlu-γGlu-γGlu-γGlu-γGlu-C20 diacid])GGPSEGVSLRHYYNWLTRQRY-NH2 [Compound 241, Y-Aib-E-G-T-F-T-S-D-Y-S-I-Aib-L-E-K-Q-A-Q-Aib-A-F-V-E-W-L-I-K(1,3)-GGPSEGVSLRHYYNWLTRQRY-NH2.C20DA-gGlu-gGlu-gGlu-gGlu-gGlu-gGlu-eLys(1,2)] | 9.16 | 8.36 | 7.78 |  |  |  |
| H-Y[Aib]EGTFTSDYSI[Aib]LEKQAE[Aib]AFVEWLIK([AEEA-AEEA-γGlu-γGlu-γGlu-γGlu-C18 diacid])GGPSEGASLRHYYNWLTRQRY-NH2 [Compound 251, Y-Aib-E-G-T-F-T-S-D-Y-S-I-Aib-L-E-K-Q-A-E-Aib-A-F-V-E-W-L-I-K(1,3)-GGPSEGASLRHYYNWLTRQRY-NH2.C18DA-gGlu-gGlu-gGlu-gGlu-OEG-OEG(1,2)] | 9.80 | 9.01 | 7.69 | 7.31 |  |  |
| H-Y[Aib]EGTFTSDYSI[Aib]LEKQAQ[Aib]EFVEWLIK([AEEA-AEEA-γGlu-γGlu-γGlu-C20 diacid])GGPSEGASLRHYYNWLTRQRY-NH2 [Compound 273, Y-Aib-E-G-T-F-T-S-D-Y-S-I-Aib-L-E-K-Q-A-Q-Aib-E-F-V-E-W-L-I-K(1,3)-GGPSEGASLRHYYNWLTRQRY-NH2.C20DA-gGlu-gGlu-gGlu-OEG-OEG(1,2)] | 9.42 | 8.82 | 7.72 |  |  |  |
| H-Y[Aib]EGTFTSDYSI[Aib]LEKQAQ[Aib]EFVEWLIK([εLys-γGlu-γGlu-γGlu-γGlu-γGlu-γGlu-C20 diacid])GGPSSGASLRHYYNWLTRQRY-NH2 [Compound 215, Y-Aib-E-G-T-F-T-S-D-Y-S-I-Aib-L-E-K-Q-A-Q-Aib-E-F-V-E-W-L-I-K(1,3)-GGPSSGASLRHYYNWLTRQRY-NH2.C20DA-gGlu-gGlu-gGlu-gGlu-gGlu-gGlu-eLys(1,2)] | 9.30 | 8.53 | 7.91 |  |  |  |
| Y[Aib]EGTFTSDYSI[Aib]LEKQAE[Aib]AFVQWLIK([AEEA-AEEA-γGlu-γGlu-γGlu-γGlu-C20 diacid])GGPSEGASLRHYYNWLTRQRY-NH2 [Compound 219, Y-Aib-E-G-T-F-T-S-D-Y-S-I-Aib-L-E-K-Q-A-E-Aib-A-F-V-Q-W-L-I-K(1,3)-GGPSEGASLRHYYNWLTRQRY-NH2.C20DA-gGlu-gGlu-gGlu-gGlu-OEG-OEG(1,2)] | 9.34 | 8.61 | 7.89 | 7.36 |  |  |
| H-Y[Aib]EGTFTSDYSI[Aib]LEKQAQ[dR]AFVEWLIK([εLys-γGlu-γGlu-γGlu-γGlu-γGlu-γGlu-C20 diacid])GGPSSGASLRHYYNWLTRQRY-NH2 [Compound 216, Y-Aib-E-G-T-F-T-S-D-Y-S-I-Aib-L-E-K-Q-A-Q-DArg-A-F-V-E-W-L-I-K(1,3)-GGPSSGASLRHYYNWLTRQRY-NH2.C20DA-gGlu-gGlu-gGlu-gGlu-gGlu-gGlu-eLys(1,2)] |  |  |  | 7.78 | 9.51 |  |
| H-Y[Aib]EGTFTSDYSI[Aib]LEKQAQ[Aib]AFVEWLIK([εLys-γGlu-γGlu-γGlu-γGlu-γGlu-γGlu-C20 diacid])GGPRYYASLRHYYNWLTRQRY-NH2 [Compound 62, Y-Aib-E-G-T-F-T-S-D-Y-S-I-Aib-L-E-K-Q-A-Q-Aib-A-F-V-E-W-L-I-K(1,3)-GGPRYYASLRHYYNWLTRQRY-NH2.C20DA-gGlu-gGlu-gGlu-gGlu-gGlu-gGlu-eLys(1,2)] | 9.32 |  | 7.87 | 7.39 |  |  |
| H-Y[Aib]EGTFTSDYSI[Aib]LEKQAQ[Aib]AFVQWLIK([εLys-γGlu-γGlu-γGlu-γGlu-γGlu-C20 diacid])GGPEEPASLRHYYNWLTRQRY-NH2 [Compound 67, Y-Aib-E-G-T-F-T-S-D-Y-S-I-Aib-L-E-K-Q-A-Q-Aib-A-F-V-Q-W-L-I-K(1,3)-GGPEEPASLRHYYNWLTRQRY-NH2.C20DA-gGlu-gGlu-gGlu-gGlu-gGlu-eLys(1,2)] | 9.54 |  | 7.86 | 7.10 |  |  |
| H-Y[Aib]EGTFTSDYSI[Aib]LEKQAQ[Aib]EFVEWLIK([AEEA-AEEA-γGlu-γGlu-γGlu-C18 diacid])GGPESGASLRHYYNWLTRQRY-NH2 [Compound 81, Y-Aib-E-G-T-F-T-S-D-Y-S-I-Aib-L-E-K-Q-A-Q-Aib-E-F-V-E-W-L-I-K(1,3)-GGPESGASLRHYYNWLTRQRY-NH2.C18DA-gGlu-gGlu-gGlu-OEG-OEG(1,2)] | 9.57 |  | 7.96 |  |  |  |
| H-Y[Aib]EGTFTSDYSI[Aib]LEKQAQ[Aib]AFVQWLIK([εLys-γGlu-γGlu-γGlu-γGlu-γGlu-γGlu-C20 diacid])GGPSYYVSLRHYYNWLTRQRY-NH2 [Compound 19, Y-Aib-E-G-T-F-T-S-D-Y-S-I-Aib-L-E-K-Q-A-Q-Aib-A-F-V-Q-W-L-I-K(1,3)-GGPSYYVSLRHYYNWLTRQRY-NH2.C20DA-gGlu-gGlu-gGlu-gGlu-gGlu-gGlu-eLys(1,2)] |  |  |  | 7.71 | 9.30 | 7.99 |
| H-Y[Aib]EGTFTSDYSI[Aib]LEKQAQ[dD]AFVEWLIK([εLys-γGlu-γGlu-γGlu-γGlu-γGlu-γGlu-C20 diacid])GGPSSGASLRHYYNWLTRQRY-NH2 [Compound 211, Y-Aib-E-G-T-F-T-S-D-Y-S-I-Aib-L-E-K-Q-A-Q-DAsp-A-F-V-E-W-L-I-K(1,3)-GGPSSGASLRHYYNWLTRQRY-NH2.C20DA-gGlu-gGlu-gGlu-gGlu-gGlu-gGlu-eLys(1,2)] |  |  | 7.95 | 7.25 | 9.13 |  |
| H-Y[Aib]EGTFTSDYSI[Aib]LE[Aib]EAQ[Aib]KFVEWLIK([εLys-γGlu-γGlu-γGlu-γGlu-γGlu-γGlu-C20 diacid])GGPSSGASLRHYYNWLTRQRY-NH2 [Compound 16, Y-Aib-E-G-T-F-T-S-D-Y-S-I-Aib-L-E-Aib-E-A-Q-Aib-K-F-V-E-W-L-I-K(1,3)-GGPSSGASLRHYYNWLTRQRY-NH2.C20DA-gGlu-gGlu-gGlu-gGlu-gGlu-gGlu-eLys(1,2)] |  |  | 7.54 | 6.71 | 8.83 |  |
| H-Y[Aib]EGTFTSDYSI[Aib]LEKQAQ[Aib]AFVQWLIK([εLys-γGlu-γGlu-γGlu-γGlu-γGlu-γGlu-C20 diacid])GGPSEYVSLRHYYNWLTRQRY-NH2 [Compound 78, Y-Aib-E-G-T-F-T-S-D-Y-S-I-Aib-L-E-K-Q-A-Q-Aib-A-F-V-Q-W-L-I-K(1,3)-GGPSEYVSLRHYYNWLTRQRY-NH2.C20DA-gGlu-gGlu-gGlu-gGlu-gGlu-gGlu-eLys(1,2)] | 9.28 |  | 7.89 | 7.61 |  |  |
| H-Y[Aib]EGTFTSDYSI[Aib]LAAAAQ[Aib]AFVEWLIK([εLys-γGlu-γGlu-γGlu-γGlu-γGlu-γGlu-C20 diacid])GGPSSGASLRHYYNWLTRQRY-NH2 [Compound 20, Y-Aib-E-G-T-F-T-S-D-Y-S-I-Aib-L-A-A-A-A-Q-Aib-A-F-V-E-W-L-I-K(1,3)-GGPSSGASLRHYYNWLTRQRY-NH2.C20DA-gGlu-gGlu-gGlu-gGlu-gGlu-gGlu-eLys(1,2)] | 9.03 |  | 7.72 |  |  |  |
